Numbers after ± are expanded uncertainties.
Conditions: Liquid, isochoric method

CCC [propane]
Conditions | mass density [kg/m3]
207.35 K, 1466.9 kPa | 609.37 ± 0.63
208.31 K, 2745.8 kPa | 609.32 ± 0.63
209.06 K, 3635.6 kPa | 609.28 ± 0.63
209.75 K, 4364.7 kPa | 609.25 ± 0.63
215.17 K, 10724 kPa | 608.98 ± 0.63
222.43 K, 1045.6 kPa | 592.03 ± 0.62
222.75 K, 19646 kPa | 608.63 ± 0.63
223.37 K, 2016.7 kPa | 591.98 ± 0.62
224.52 K, 3087.1 kPa | 591.93 ± 0.62
225.47 K, 4153.8 kPa | 591.89 ± 0.62
226.91 K, 5632.5 kPa | 591.82 ± 0.62
231.06 K, 30008 kPa | 608.23 ± 0.63
231.07 K, 10051 kPa | 591.62 ± 0.61
239.51 K, 39217 kPa | 607.87 ± 0.63
240.49 K, 1194 kPa | 571.45 ± 0.6
240.67 K, 19671 kPa | 591.21 ± 0.61
240.92 K, 1528.8 kPa | 571.44 ± 0.6
242.87 K, 3265.5 kPa | 571.39 ± 0.6
244.55 K, 4758.9 kPa | 571.35 ± 0.59
245.44 K, 5554 kPa | 571.33 ± 0.6
250.1 K, 9711.4 kPa | 571.2 ± 0.59
250.12 K, 29984 kPa | 590.79 ± 0.61
251.11 K, 51133 kPa | 607.38 ± 0.63
259.96 K, 1060.8 kPa | 547.54 ± 0.57
261.06 K, 19770 kPa | 571.13 ± 0.59
261.18 K, 40016 kPa | 590.35 ± 0.61
261.19 K, 1975 kPa | 547.51 ± 0.57
262.52 K, 2951.9 kPa | 547.48 ± 0.57
262.52 K, 3059.7 kPa | 547.47 ± 0.57
263.78 K, 4004 kPa | 547.44 ± 0.57
265.28 K, 5120.2 kPa | 547.4 ± 0.57
266.44 K, 5840.1 kPa | 547.37 ± 0.57
267.87 K, 6954.7 kPa | 547.34 ± 0.57
270.11 K, 49092 kPa | 589.98 ± 0.61
270.22 K, 1044.7 kPa | 533.77 ± 0.56
271.68 K, 2041.5 kPa | 533.71 ± 0.56
272.12 K, 10829 kPa | 547.66 ± 0.57
272.12 K, 30057 kPa | 570.94 ± 0.59
272.13 K, 10235 kPa | 547.22 ± 0.57
273.11 K, 3025.3 kPa | 533.66 ± 0.56
274.51 K, 3979.1 kPa | 533.61 ± 0.56
276.2 K, 5186.1 kPa | 533.54 ± 0.56
283.08 K, 995.2 kPa | 515.52 ± 0.55
283.43 K, 38987 kPa | 570.26 ± 0.59
283.64 K, 10260 kPa | 533.26 ± 0.56
284.77 K, 2002.1 kPa | 515.46 ± 0.55
284.98 K, 19876 kPa | 546.88 ± 0.57
286.56 K, 3090.5 kPa | 515.39 ± 0.55
288.23 K, 4086.1 kPa | 515.33 ± 0.55
289.9 K, 5086.2 kPa | 515.27 ± 0.54
295.92 K, 49573 kPa | 569.78 ± 0.59
297.68 K, 1075 kPa | 493.21 ± 0.53
298.14 K, 10031 kPa | 514.99 ± 0.54
298.15 K, 10038 kPa | 514.99 ± 0.54
298.15 K, 19981 kPa | 532.71 ± 0.56
298.15 K, 30027 kPa | 546.51 ± 0.57
298.15 K, 30100 kPa | 546.7 ± 0.57
298.18 K, 19921 kPa | 532.75 ± 0.56
298.19 K, 20084 kPa | 532.74 ± 0.56
299.62 K, 2037.9 kPa | 493.14 ± 0.53
301.57 K, 3036.9 kPa | 493.08 ± 0.53
303.56 K, 4053.8 kPa | 493.01 ± 0.53
305.53 K, 5060.2 kPa | 492.95 ± 0.53
311.44 K, 39238 kPa | 545.97 ± 0.57
313.68 K, 30193 kPa | 532.17 ± 0.55
315.23 K, 2005.2 kPa | 466.11 ± 0.51
315.23 K, 9905.5 kPa | 492.64 ± 0.52
315.23 K, 10017 kPa | 492.63 ± 0.52
315.23 K, 19842 kPa | 514.41 ± 0.54
317.42 K, 2930.2 kPa | 466.04 ± 0.51
319.89 K, 3981.7 kPa | 465.97 ± 0.5
322.25 K, 4976.5 kPa | 465.9 ± 0.5
332.01 K, 29682 kPa | 513.86 ± 0.53
333.97 K, 19538 kPa | 492.04 ± 0.52
334.14 K, 9861.6 kPa | 465.55 ± 0.5
344.57 K, 49972 kPa | 531.11 ± 0.55
353.14 K, 29253 kPa | 491.45 ± 0.52
353.14 K, 42004 kPa | 513.17 ± 0.53
353.15 K, 17921 kPa | 464.99 ± 0.49

— the NIST ThermoML archive (doi:10.1021/je300148f)
